Columns and labels:
[1] = target: T1, purified human Factor XIa (Homo sapiens, UniProt P03951); experiment: Factor XIa Assay; assay type: biochemical; settings: purified human Factor XIa 40 pM; substrate Z-Gly-Pro-Arg-AFC 100 μM; 50 mM HEPES pH 7.4; read-out: Hu FXIa Ki
T1 construct: purified human Factor XIa; purchased Sekisui Diagnostics
In short: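 Purified human FXIa at 40 pM, in 50 mM HEPES pH 7.4 with 150 mM NaCl, 5 mM CaCl2 and 0.1% PEG 8000, was preequilibrated with inhibitor. Initial hydrolysis rates of Z-Gly-Pro-Arg-AFC were then measured at room temperature or 37 °C. Ki was derived from Vo/Vi = 1 + [I]/Ki, assuming competitive inhibition.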

[2] = target: T2, purified Human plasma kallikrein (Homo sapiens, UniProt P03952); experiment: Kallikrein Assay; assay type: biochemical; settings: purified Human plasma kallikrein 0.5 nM; substrate Acetyl-K-P-R-AFC; 50 mM HEPES pH 7.4; Ki from IC50 by Cheng Prusoff equation; read-out: Hu P. Kallikrein
T2 construct: yields a heavy chain (371 amino acids) and a light chain (248 amino acids); purchased Enzyme Research Laboratories
Procedure: The effectiveness of a compound of the present invention as an inhibitor of Kallikrein can be determined using a relevant purified serine protease, and an appropriate synthetic substrate. The rate of hydrolysis of the chromogenic or fluorogenic substrate by the relevant serine protease was measured both in the absence and presence of compounds of the present invention. Assays were conducted at room temperature or at 37° C. […] A decrease in the rate of fluorescence change in the presence of inhibitor is indicative of enzyme inhibition. Such methods are known to one skilled in the art. The results of this assay are expressed as the inhibitory constant, Ki. Kallikrein determinations were made in 50 mM HEPES buffer at pH 7.4 containing 150 mM NaCl, 5 mM CaCl2, and 0.1% PEG 8000 (polyethylene glycol; Fisher Scientific). Determinations were made using purified Human plasma kallikrein at a final concentration of 0.5 nM (Enzyme Research Laboratories) and the synthetic substrate, Acetyl-K—P-R-AFC (Sigma # C6608) at a concentration of […]. Activity assays were performed by diluting a stock solution of substrate at least tenfold to a final concentration ≤0.2 Km into a solution containing enzyme or enzyme equilibrated with inhibitor. Times required to achieve equilibration between enzyme and inhibitor were determined in control experiments. The reactions were performed under linear progress curve conditions and fluorescence increase measured at 405 Ex/510 Em nm. Values were converted to percent inhibition of the control reaction (after subtracting 100% Inhibition value). IC50 was determined by inflection point from a four parameter logistic curve fit. Ki was calculated using the Cheng Prusoff equation, Ki=IC50/(1+([S]/Km)). The activities shown by this assay indicate that the compounds of the invention may be therapeutically useful for treating or preventing various cardiovascular and/or cerebrovascular thromboembolic conditions in patients suffering from unstable angina, acute coronary syndrome, refractory angina, myocardial infarction, transient ischemic attacks, atrial fibrillation, stroke such as thrombotic stroke or embolic stroke, venous thrombosis, coronary and cerebral arterial thrombosis, cerebral and pulmonary embolism, atherosclerosis, deep vein thrombosis, disseminated intravascular coagulation, and reocclusion or restenosis of recanalized vessels.

T1 sequence (P03951 388-625 limits assumed): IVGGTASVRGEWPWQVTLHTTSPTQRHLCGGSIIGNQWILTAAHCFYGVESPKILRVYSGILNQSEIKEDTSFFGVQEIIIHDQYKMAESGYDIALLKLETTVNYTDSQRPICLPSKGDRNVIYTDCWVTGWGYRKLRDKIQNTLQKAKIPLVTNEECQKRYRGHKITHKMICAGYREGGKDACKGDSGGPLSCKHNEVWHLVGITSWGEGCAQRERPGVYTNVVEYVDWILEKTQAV
T1 sequence (P03951 19-387 partner limits assumed): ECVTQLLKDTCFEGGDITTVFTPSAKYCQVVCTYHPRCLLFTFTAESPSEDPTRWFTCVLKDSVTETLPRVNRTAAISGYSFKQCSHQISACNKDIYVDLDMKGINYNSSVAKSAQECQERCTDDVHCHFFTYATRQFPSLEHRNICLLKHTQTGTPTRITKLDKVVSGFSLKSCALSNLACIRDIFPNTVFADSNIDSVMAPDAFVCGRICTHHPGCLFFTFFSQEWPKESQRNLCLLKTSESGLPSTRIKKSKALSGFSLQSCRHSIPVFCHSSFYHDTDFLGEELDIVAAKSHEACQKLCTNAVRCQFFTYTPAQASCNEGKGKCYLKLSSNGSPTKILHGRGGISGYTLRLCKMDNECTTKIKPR
T2 sequence (P03952 391-638 limits assumed): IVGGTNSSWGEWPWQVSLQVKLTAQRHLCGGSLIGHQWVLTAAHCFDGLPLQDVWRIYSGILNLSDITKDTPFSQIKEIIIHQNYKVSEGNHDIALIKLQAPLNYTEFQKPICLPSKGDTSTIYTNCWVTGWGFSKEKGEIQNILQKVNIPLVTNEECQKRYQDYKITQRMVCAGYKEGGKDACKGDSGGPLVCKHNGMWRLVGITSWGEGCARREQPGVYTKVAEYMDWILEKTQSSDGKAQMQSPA
T2 sequence (P03952 20-390 partner limits assumed): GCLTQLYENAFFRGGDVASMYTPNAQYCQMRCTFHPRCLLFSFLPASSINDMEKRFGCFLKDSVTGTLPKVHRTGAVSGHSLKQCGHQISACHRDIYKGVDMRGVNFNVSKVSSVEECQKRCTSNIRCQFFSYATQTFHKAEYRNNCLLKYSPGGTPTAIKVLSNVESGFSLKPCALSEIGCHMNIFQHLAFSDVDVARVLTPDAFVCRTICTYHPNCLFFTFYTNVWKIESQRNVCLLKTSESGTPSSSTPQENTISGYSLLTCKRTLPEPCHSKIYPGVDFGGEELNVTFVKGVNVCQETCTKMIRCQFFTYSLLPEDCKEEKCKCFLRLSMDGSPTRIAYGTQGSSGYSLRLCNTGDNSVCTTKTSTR

Row | Ki [1] [nM] | Ki [2] [nM] | Structure (SMILES)
1 | 0.67 | 0.96 | COC(=O)Nc1ccc2c(c1)NC(=O)[C@H](C)CCCC(C(=O)N1CCC[C@@]3(C1)OC(=O)Nc1ccc(Cl)c(F)c13)c1nc-2c(Cl)[nH]1 (stereo partly drawn) [Example 10, methyl ((5R,Z)-1^5-chloro-9-((R)-6-chloro-5-fluoro-2-oxo-1,2-dihydrospiro[benzo[d][1,3]oxazine-4,3′-piperidine]-1′-carbonyl)-5-methyl-4-oxo-1^1H-3-aza-1(4,2)-imidazola-2(1,2)-benzenacyclononaphane-2^4-yl)carbamate]
2 | 0.6 | 1.11 | COC(=O)Nc1ccc2c(c1)NC(=O)CCCC[C@@H](C(=O)N1CC[C@@]3(C1)OC(=O)Nc1ccc(Cl)c(F)c13)c1nc-2c(C)[nH]1 [Example 13b, methyl ((R,Z)-9-((R)-6-chloro-5-fluoro-2-oxo-1,2-dihydrospiro[benzo[d][1,3]oxazine-4,3′-pyrrolidine]-1′-carbonyl)-1^5-methyl-4-oxo-1^1H-3-aza-1(4,2)-imidazola-2(1,2)-benzenacyclononaphane-2^4-yl)carbamate]
3 | 13.4 | 5.5 | COC(=O)Nc1ccc2c(c1)NC(=O)[C@H](C)CCC[C@@H](C(=O)N1CCC[C@@]3(C1)OC(=O)Nc1ccc(Cl)c(F)c13)C1=NC=C2O1 [Example 14a, methyl ((5R,9R)-9-((R)-6-chloro-5-fluoro-2-oxo-1,2-dihydrospiro[benzo[d][1,3]oxazine-4,3′-piperidine]-1′-carbonyl)-5-methyl-4-oxo-3-aza-1(5,2)-oxazola-2(1,2)-benzenacyclononaphane-2^4-yl)carbamate]
4 | 9.2 | 3.8 | COC(=O)Nc1ccc2c(c1)NC(=O)CCCC[C@@H](C(=O)N1CC[C@@]3(C1)OC(=O)Nc1ccc(Cl)cc13)c1cc-2ccn1 [Example 17a, methyl ((R)-9-((R)-6-chloro-2-oxo-1,2-dihydrospiro[benzo[d][1,3]oxazine-4,3′-pyrrolidine]-1′-carbonyl)-4-oxo-3-aza-1(4,2)-pyridina-2(1,2)-benzenacyclononaphane-2^4-yl)carbamate]
5 | 8.6 | 3.65 | COC(=O)Nc1ccc2c(c1)NC(=O)CCCCC[C@@H](C(=O)N1CC[C@@]3(C1)OC(=O)Nc1ccc(Cl)c(F)c13)c1cc-2ccn1 [Example 18a, methyl ((R)-10-((R)-6-chloro-5-fluoro-2-oxo-1,2-dihydrospiro[benzo[d][1,3]oxazine-4,3′-pyrrolidine]-1′-carbonyl)-4-oxo-3-aza-1(4,2)-pyridina-2(1,2)-benzenacyclodecaphane-2^4-yl)carbamate]
6 | 59.4 | 17 | COC(=O)Nc1ccc2c(c1)NC(=O)CC/C=C/C[C@@H](C(=O)N1CCC[C@@]3(C1)OC(=O)Nc1ccc(Cl)c(F)c13)c1cc-2ccn1 [Example 21a, methyl ((R,E)-10-((R)-6-chloro-5-fluoro-2-oxo-1,2-dihydrospiro[benzo[d][1,3]oxazine-4,3′-piperidine]-1′-carbonyl)-4-oxo-3-aza-1(4,2)-pyridina-2(1,2)-benzenacyclodecaphanen-2^4-yl)carbamate]
7 | 2.88 | 0.77 | COC(=O)Nc1ccc2c(c1)NC(=O)CC/C=C\C[C@@H](C(=O)N1CCC[C@@]3(C1)OC(=O)Nc1ccc(Cl)c(F)c13)c1cc-2ccn1 [Example 22a, methyl ((R,Z)-10-((R)-6-chloro-5-fluoro-2-oxo-1,2-dihydrospiro[benzo[d][1,3]oxazine-4,3′-piperidine]-1′-carbonyl)-4-oxo-3-aza-1(4,2)-pyridina-2(1,2)-benzenacyclodecaphanen-2^4-yl)carbamate]
8 | 1.3 | 0.75 | COC(=O)Nc1ccc2c(c1)NC(=O)CCCC[C@@H](C(=O)N1CC[C@@]3(C1)OC(=O)Nc1ccc(Cl)c(F)c13)c1ccnc-2c1 [Example 25a, methyl ((R)-9-((R)-6-chloro-5-fluoro-2-oxo-1,2-dihydrospiro[benzo[d][1,3]oxazine-4,3′-pyrrolidine]-1′-carbonyl)-4-oxo-3-aza-1(2,4)-pyridina-2(1,2)-benzenacyclononaphane-2^4-yl)carbamate]
9 | 45.2 | 12.7 | COC(=O)Nc1ccc2c(c1)NC(=O)CCCCC(C(=O)N1CC[C@@]3(C1)OC(=O)Nc1ccc(Cl)cc13)c1cc(F)cc-2c1 (stereo partly drawn) [Example 28, methyl (9-((R)-6-chloro-2-oxo-1,2-dihydrospiro[benzo[d][1,3]oxazine-4,3′-pyrrolidine]-1′-carbonyl)-1^5-fluoro-4-oxo-3-aza-1(1,3),2(1,2)-dibenzenacyclononaphane-2^4-yl)carbamate]
10 | 68.8 | 1.52 | COC(=O)Nc1ccc2c(c1)NC(=O)CCCC[C@@H](C(=O)N1CCC[C@@]3(C1)OC(=O)Nc1ccc(Cl)c(F)c13)c1cc(F)cc-2c1 [Example 30b, methyl ((R)-9-((R)-6-chloro-5-fluoro-2-oxo-1,2-dihydrospiro[benzo[d][1,3]oxazine-4,3′-piperidine]-1′-carbonyl)-1^5-fluoro-4-oxo-3-aza-1(1,3),2(1,2)-dibenzenacyclononaphane-2^4-yl)carbamate]
11 | 41.1 | 63.7 | CCOC(=O)C1C/C=C/CC(C(=O)N2CCC[C@@]3(C2)OC(=O)Nc2ccc(Cl)c(F)c23)c2nc(c[nH]2)-c2ccc(NC(=O)OC)cc2N1 (stereo partly drawn) [Example 31, ethyl (1^2Z,6E)-9-((R)-6-chloro-5-fluoro-2-oxo-1,2-dihydrospiro[benzo[d][1,3]oxazine-4,3′-piperidine]-1′-carbonyl)-2^4-((methoxycarbonyl)amino)-1^1H-3-aza-1(4,2)-imidazola-2(1,2)-benzenacyclononaphan-6-ene-4-carboxylate]
12 | 16.1 | 4.5 | COC(=O)Nc1ccc2c(c1)NC(=O)CCCC[C@H](NC(=O)N1CC[C@@]3(C1)OC(=O)Nc1ccc(Cl)cc13)c1nc-2c[nH]1 [Example 38, methyl ((S,Z)-9-((R)-6-chloro-2-oxo-1,2-dihydrospiro[benzo[d][1,3]oxazine-4,3′-pyrrolidine]-1′-carboxamido)-4-oxo-11H-3-aza-1(4,2)-imidazola-2(1,2)-benzenacyclononaphane-2^4-yl)carbamate]

From patent publication US10344039B2, “Macrocyclic spirocarbamate derivatives as factor XIa inhibitors, pharmaceutically acceptable compositions and their use” (MERCK SHARP & DOHME CORP., priority 2015, dated 2019)
